Reference: patent publication US20240174665A1, “CDK2 INHIBITORS AND USES THEREOF” (Kymera Therapeutics, Inc., priority 2022, published 2024)

Target: T1, CDK2/CycE1 (Homo sapiens, UniProt P24941)
T1 construct: 1.5 nM CDK2/CycE1, amino acids 1-298/1-410, Carna BS; purchased Carna BS (Carna Biosciences) 04-165, lot 20CBS-0731B
Test: CDK2 inhibition assay, PhosphoSens CSox-based Kinetic Assay Format (AssayQuant)
Assay type: biochemical
Settings: 1.5 nM CDK2/CycE1, 1.5× Km ATP, 30 minute preincubation at 30° C., reaction 240 minutes; read-out: IC50 CDK2-CycE1 (AssayQuant) Using PhosphoSens ® CSox-based Kinetic Assay Format
Description: Inhibition of CDK2 was measured using PhosphoSens® CSox-based Kinetic Assay Format (AssayQuant Technologies) as follows:
• 2.5 μl 10× Inhibitor in 10% DMSO (3-fold titration in 10% DMSO for a final DMSO concentration of 1%) • […] Reaction Mix with ATP, DTT, & CSx Substrate • 30 minute preincubation at 30° C. • […] Enzyme dilution buffer (EDB) (1×) or Kinase (5× in EDB); Enzyme Dilution Buffer (EDB): 20 mM HEPES, pH 7.5, 0.01% Brij-35, 0.1 mM EGTA, 5% Glycerol, 1.0 mg/ml BSA, 1.0 mM DTT • 25 μL Final reaction volume • Reaction was run at 30° C. for 240 minutes
• 54 mM HEPES, pH 7.5 • 1.5× Km ATP (see ATP TAB) • 1.2 mM DTT • 0.012% Brij-35 • 0.52 mM EGTA • 1% glycerol • 0.2 mg/ml BSA • 10 mM MgCl2 • 15 μM AQT0297
Reactions were run in Corning, low volume 384-well, white flat round bottom polystyrene NBS microplates (Cat. #3824) after sealing using optically-clear adhesive film (TopSealA-Plus plate seal, PerkinElmer [Cat. #6050185])
The letter codes for CDK2 inhibition include: A (<100 nM), B (≥100-500 nM), C (>500-1000 nM), and D (>1000 nM).

CNS(=O)(=O)c1ccc(Nc2ncc(C(F)(F)F)c(C3CCCCC3)n2)c(C)c1 [I-68]
IC50: > 1000 nM

CNS(=O)(=O)c1ccc(Nc2ncc(C(F)(F)F)c(C3CCOCC3)n2)c(C)c1 [I-271]
IC50: 500 to 1000 nM

Cc1cc(CS(C)(=O)=O)ccc1Nc1ncc2cc(Cl)c(=O)n(C(C)C)c2n1 [I-197]
IC50: > 1000 nM

CNS(=O)(=O)c1ccc(Nc2ncc(C(F)(F)F)c(-c3cnn(C)c3C(F)F)n2)c(C)c1 [I-267]
IC50: 100 to 500 nM

COC1CC2(CCC(Nc3ncc4cc(Cl)c(=O)n(C5CCCC5)c4n3)CC2)C1 (stereo not drawn) [I-239]
IC50: > 1000 nM

CCS(=O)(=O)c1ccc(Nc2nccc(-c3cnc(C)n3C(C)C)n2)c(C)c1 [I-29, N-(4-ethylsulfonyl-2-methyl-phenyl)-4-(3-isopropyl-2-methyl-imidazol-4-yl) pyrimidin-2-amine]
IC50: 100 to 500 nM

CC(C)c1cccc2cnc(NC3CCN(S(C)(=O)=O)CC3)nc12 [I-215]
IC50: < 100 nM

CNS(=O)(=O)c1cc(C)c(Nc2ncc3cc(Cl)c(=O)n(C(C)C)c3n2)cn1 [I-213]
IC50: 100 to 500 nM

CNS(=O)(=O)c1ccc(Nc2ncc(C(F)(F)F)c(-c3cn(C(C)C)c(C)n3)n2)c(C)c1 [I-266]
IC50: < 100 nM

CC(=O)N(c1ccc(-c2cnn(C)c2)cc1)[C@H]1CC[C@H](Nc2ncc3cc(Cl)c(=O)n(C(C)C)c3n2)CC1 [I-228]
IC50: 100 to 500 nM

Cc1cc(S(=O)(=O)C2CCC3(CC2)CN(C)C3)ccc1Nc1ncc2cc(Cl)c(=O)n(C3CCCC3)c2n1 [I-41]
IC50: < 100 nM

CNS(=O)(=O)c1ccc(Nc2ncc3cc(Cl)c(=O)n(C(C)C)c3n2)c(C)c1 [I-247]
IC50: < 100 nM

Cn1cc(S(=O)(=O)N2CCC(Nc3ncc4c(n3)N([C@@H]3CCC[C@@]3(C)O)C(=O)C43CC3)CC2)cn1 [I-254]
IC50: < 100 nM

Cn1cc(S(=O)(=O)N2CCC(Nc3ncc4c(n3)N(C3CCCC3)C(=O)C43CC3)CC2)cn1 [I-255]
IC50: < 100 nM

CCS(=O)(=O)c1ccc(Nc2ncc3c(n2)N(C2CCCC2)C(=O)C32CC2)c(C)c1 [I-35]
IC50: < 100 nM

CNS(=O)(=O)c1ccc(Nc2ncc3ccc(=O)n(C4CCCC4)c3n2)c(C)c1 [I-252]
IC50: < 100 nM

CNS(=O)(=O)c1ccc(Nc2ncc(C(F)(F)F)c([C@H]3CC[C@@](C)(O)CC3)n2)c(C)c1 [I-67]
IC50: < 100 nM

CCS(=O)(=O)c1ccc(Nc2ncc(C(F)(F)F)c(-c3cnn(C)c3C(F)F)n2)c(C)c1 [I-45]
IC50: 500 to 1000 nM

CCS(=O)(=O)c1ccc(Nc2ncc3cc(F)c(=O)n(C4CCCC4)c3n2)c(C)c1 [I-52]
IC50: 100 to 500 nM

Cc1cc(S(N)(=O)=O)ccc1Nc1ncc(C(F)(F)F)c(-c2cnn(C)c2)n1 [I-272]
IC50: < 100 nM

CNS(=O)(=O)c1ccc(Nc2ncc3cc(Cl)c(=O)n(C(C)C)c3n2)c(C)n1 [I-218]
IC50: 100 to 500 nM

CCS(=O)(=O)c1ccc(Nc2ncc3cc(Cl)c(=O)n(C(C)C)c3n2)c(C)c1 [I-30]
IC50: 100 to 500 nM

CCS(=O)(=O)c1ccc(Nc2ncc3cc(C(F)F)nc(N4CCCC4)c3n2)c(C)c1 [I-42]
IC50: < 100 nM

CNS(=O)(=O)c1ccc(Nc2ncc3cc(C(F)F)c(=O)n(C4CCCC4)c3n2)c(C)c1 [I-242]
IC50: < 100 nM

CC(=O)N1CCC(Nc2ncc3cc(Cl)c(=O)n(C(C)C)c3n2)CC1 [I-235]
IC50: 500 to 1000 nM

CCS(=O)(=O)c1ccc(Nc2ncc(C(F)(F)F)c(-c3cn(C(C)C)c(C)n3)n2)c(C)c1 [I-44]
IC50: < 100 nM

Cc1cc(CS(C)(=N)=O)ccc1Nc1ncc2cc(Cl)c(=O)n(C(C)C)c2n1 (stereo not drawn) [I-207]
IC50: 100 to 500 nM

CNS(=O)(=O)c1ccc(Nc2nc(OC3CCCCC3)c3ncsc3n2)c(C)c1 [I-234]
IC50: > 1000 nM

CNS(=O)(=O)c1ccc(Nc2ncc(C(F)(F)F)c(-c3cnc(C)n3C(C)C)n2)c(C)c1 [I-265]
IC50: 100 to 500 nM

CNS(=O)(=O)c1ccc(Nc2ncc3cc(C(F)F)c(=O)n([C@@H]4CCC[C@@]4(C)O)c3n2)c(C)c1 [I-256]
IC50: < 100 nM

CCS(=O)(=O)c1ccc(Nc2ncc3cc(C(F)F)c(=O)n(C(C)C)c3n2)c(C)c1 [I-31]
IC50: > 1000 nM

CNS(=O)(=O)c1ccc(Nc2nccc(-c3cnc(C)n3C(C)C)n2)c(C)c1 [I-269]
IC50: < 100 nM

CC(C)(O)c1cccc2cnc(NC3CCN(S(C)(=O)=O)CC3)cc12 [I-212]
IC50: 100 to 500 nM

CCS(=O)(=O)c1ccc(Nc2ncc(C(F)(F)F)c([C@H]3CC[C@@](C)(O)CC3)n2)c(C)c1 [I-40]
IC50: > 1000 nM

CCS(=O)(=O)c1ccc(Nc2ncc3cc(C(F)(F)F)c(=O)n(C4CCCC4)c3n2)c(C)c1 [I-53]
IC50: 500 to 1000 nM

CCS(=O)(=O)c1ccc(Nc2ncc(C(F)(F)F)c([C@H]3CC[C@](C)(O)CC3)n2)c(C)c1 [I-43]
IC50: > 1000 nM

COCc1cc(-c2ccc(Nc3ncc4cc(Cl)c(=O)n(C(C)C)c4n3)c(C)c2)n(C)n1 [I-210]
IC50: > 1000 nM

CCS(=O)(=O)c1ccc(Nc2ncc(C(F)(F)F)c(-c3cnn(C)c3)n2)c(C)c1 [I-27, N-(4-ethylsulfonyl-2-methyl-phenyl)-4-(1-methylpyrazol-4-yl)-5-(trifluoromethyl) pyrimidin-2-amine]
IC50: < 100 nM

CCS(=N)(=O)c1ccc(Nc2ncc3cc(Cl)c(=O)n(C(C)C)c3n2)c(C)c1 (stereo not drawn) [I-208]
IC50: 100 to 500 nM
